“Also recorded” adds a separate entry of the source.
Tested on: blink reflex
Assay: Blink reflex response parameters in ADHD patients before and 1 hour after their prescribed ADHD medication versus non-ADHD controls (pilot study)
Assay type: in vivo, humans
Conditions: for Max closing velocity, effect of medication type (in words): compared to controls and participants before taking their ADHD medications; for Delta 30, Estimate of Fixed Effects / Excursions, Estimate of Fixed Effects / Initial Velocity, Estimate of Fixed Effects / Max Closing Velocity, Estimate of Fixed Effects / Differential Latency, Estimate of Fixed Effects: Model 3 mixed model by medication type; for Delta 30, Estimate of Fixed Effects / Excursions, Estimate of Fixed Effects / Initial Velocity, Estimate of Fixed Effects / Max Closing Velocity, Estimate of Fixed Effects / Differential Latency, Estimate of Fixed Effects / Max Closing Velocity, Estimate of Fixed Effects, further analysis: relative to Med_type = 4 (Control); for Differential Latency, Estimate of Fixed Effects: AMP n=20, ATX n=2, MPH n=2; for Max Closing Velocity, Estimate of Fixed Effects, further analysis: Model 3 with confounders hours of sleep, urine specific gravity and age

## CNCC[C@@H](Oc1ccccc1C)c1ccccc1 [ATX]
Model 3
  Delta 30, effect of medication type (in words): statistically significant
  Differential Latency, effect of medication type (in words): statistically significant
  Max closing velocity, effect of medication type (in words): associated with an increase
  Delta 30, Estimate of Fixed Effects: −4.184
  Excursions, Estimate of Fixed Effects: 13.866
  Initial Velocity, Estimate of Fixed Effects: .532
  Max Closing Velocity, Estimate of Fixed Effects: 2.659
  Differential Latency, Estimate of Fixed Effects: −2.456
  Max Closing Velocity, Estimate of Fixed Effects, further analysis: 2.277

## COC(=O)C(c1ccccc1)C1CCCCN1 (stereo not drawn) [MPH, methylphenidate]
Model 3
  Delta 30, effect of medication type (in words): statistically significant
  Differential Latency, effect of medication type (in words): statistically significant
  Excursions, effect of medication type (in words): statistically significant
  Initial Velocity, effect of medication type (in words): statistically significant; also recorded: slight increase
  Max closing velocity, effect of medication type (in words): associated with an increase
Model 3 conclusion, ATX=2, MPH=2, AMP=20 participants
  Blink reflex parameters predictive for treatment type (in words): particularly predictive
  Delta 30, Estimate of Fixed Effects: −1.756
  Excursions, Estimate of Fixed Effects: 14.707
  Initial Velocity, Estimate of Fixed Effects: .578
  Max Closing Velocity, Estimate of Fixed Effects: 1.378
  Differential Latency, Estimate of Fixed Effects: −0.980
  Max Closing Velocity, Estimate of Fixed Effects, further analysis: 1.265

Reference: patent US20250375129A1, “USE OF BLINK REFLEX FOR ATTENTION-DEFICIT/HYPERACTIVITY DISORDER (ADHD) RESPONSE MONITORING AND/OR TREATMENT SELECTION” (Blinktbi, Inc., priority 2022, published 2025)
